The source of these data is patent US6977262B2, “Dihydropyrazolopyridine compounds and pharmaceutical use thereof” (Mitsubishi Pharma Corporation, priority 2001, dated 2005).

What is called melting point is the temperature of the solid-liquid transition.

In turn, `CCCC1=C(C(=O)OCC)C(c2ccccc2OC)c2c[nH]nc2N1` (stereo not shown) [Example 32, Ethyl 4,7-dihydro-4-(2-methoxyphenyl)-6-propyl-2H-pyrazolo[3,4-b]pyridine-5-carboxylate] had a melting point of 169 °C.
The result for `N#CC1=C(C2CCCCC2)Nc2n[nH]cc2C1c1cccc(C#N)c1Br` (stereo not shown) [Example 325, 4-(2-Bromo-3-cyanophenyl)-5-cyano-6-cyclohexyl-4,7-dihydro-2H-pyrazolo[3,4-b]pyridine] reads 193 °C.
On to `CCOC(=O)C1=C(CC)Nc2n[nH]cc2C1c1ccccc1Cl` (stereo not shown) [Example 82, Ethyl 4-(2-chlorophenyl)-6-ethyl-4,7-dihydro-2H-pyrazolo[3,4-b]pyridine-5-carboxylate], for which the melting point was 213 °C.
The result for `N#CC1=C(c2ccccc2)Nc2n[nH]cc2C1c1cccc2c1OCCC2` (stereo not shown) [Example 148, 5-Cyano-4-(3,4-dihydro-2H-benzopyran-8-yl)-4,7-dihydro-6-phenyl-2H-pyrazolo[3,4-b]pyridine] reads 255 °C; that for `CCCC1=C(C#N)C(c2cccc3nsnc23)c2c[nH]nc2N1` (stereo not shown) [Example 138, 4-(2,1,3-Benzothiadiazol-4-yl)-5-cyano-4,7-dihydro-6-propyl-2H-pyrazolo[3,4-b]pyridine], 195 °C.
In the case of `N#CC1=C(c2ccc3ccccc3c2)Nc2n[nH]cc2C1c1cccc2nonc12` (stereo not shown) [Example 172, 4-(2,1,3-Benzoxadiazol-4-yl)-5-cyano-4,7-dihydro-6-(naphthalen-2-yl)-2H-pyrazolo[3,4-b]pyridine], the melting point came out at 228 °C.
Consider `Cl.Cl.Cl.N#CC1=C(CN2CCN(c3ccccc3)CC2)Nc2n[nH]cc2C1c1ccccc1Cl` (stereo not shown), for which the melting point was 217 to 220 °C (dec.).
Regarding `CCCC1=C(C(=O)OCC)C(c2ccc(Cl)cc2)c2c[nH]nc2N1` (stereo not shown) [Example 235, Ethyl 4-(4-chlorophenyl)-4,7-dihydro-6-propyl-2H-pyrazolo[3,4-b]pyridine-5-carboxylate], the melting point was in the range of 159 to 161 °C.
`CCCC1=C(C#N)C(c2cccc(C#N)c2Br)c2c[nH]nc2N1C` (stereo not shown) [Example 348, 4-(2-Bromo-3-cyanophenyl)-5-cyano-7-methyl-6-propyl-4,7-dihydro-2H-pyrazolo[3,4-b]pyridine] showed a melting point of 218 to 220 °C.
The result for `CCOC(=O)C1=C(C(F)(F)F)Nc2n[nH]cc2C1c1ccsc1` (stereo not shown) [Example 23, Ethyl 4,7-dihydro-4-(thiophen-3-yl)-6-trifluoromethyl-2H-pyrazolo[3,4-b]pyridine-5-carboxylate] reads 140 to 145 °C; that for `CCCC1=C(C#N)C(c2cccc3nonc23)c2cn(C(=O)OC(C)(C)C)nc2N1` (stereo not shown) [Example 288, 4-(2,1,3-Benzoxadiazol-4-yl)-2-tert-butoxycarbonyl-5-cyano-4,7-dihydro-6-propyl-2H-pyrazolo[3,4-b]pyridine], 168 to 170 °C; that for `CCCC1=C(C#N)C(c2ccccc2C#N)c2c[nH]nc2N1` (stereo not shown) [Example 133, 5-Cyano-4-(2-cyanophenyl)-4,7-dihydro-6-propyl-2H-pyrazolo[3,4-b]pyridine], 218 °C.
`CCCC1=C(C#N)C(c2cccc3oc(C)nc23)c2c[nH]nc2N1` (stereo not shown) [Example 139, 5-Cyano-4,7-dihydro-4-(2-methylbenzoxazol-4-yl)-6-propyl-2H-pyrazolo[3,4-b]pyridine]: the melting point amounted to 208 °C.
For `CCCC1=C(C(=O)OCC)C(c2ccccc2OCc2ccccc2)c2c[nH]nc2N1` (stereo not shown) [Example 38, Ethyl 4-(2-benzyloxyphenyl)-4,7-dihydro-6-propyl-2H-pyrazolo[3,4-b]pyridine-5-carboxylate], the melting point stood at 128 °C.
The result for `N#CC1=C(c2ccccc2)Nc2n[nH]cc2C1c1ccccc1C#N` (stereo not shown) [Example 144, 5-Cyano-4-(2-cyanophenyl)-4,7-dihydro-6-phenyl-2H-pyrazolo[3,4-b]pyridine] reads 148 °C.
The result for `CCOC(=O)C1=C(C(F)(F)F)Nc2n[nH]cc2C1c1cccc(Cl)c1` (stereo not shown) [Example 17, Ethyl 4-(3-chlorophenyl)-4,7-dihydro-6-trifluoromethyl-2H-pyrazolo[3,4-b]pyridine-5-carboxylate] reads 144 to 145 °C; that for `CCCC1=C(C(=O)OCC)C(c2cccc(Br)c2Br)c2c[nH]nc2N1` (stereo not shown) [Example 181, Ethyl 4-(2,3-dibromophenyl)-4,7-dihydro-6-propyl-2H-pyrazolo[3,4-b]pyridine-5-carboxylate], 180 to 183 °C (dec.); that for `CCC1=C(C#N)C(c2cccc(C#N)c2Cl)c2c[nH]nc2N1` (stereo not shown) [Example 195, 4-(2-Chloro-3-cyanophenyl)-5-cyano-6-ethyl-4,7-dihydro-2H-pyrazolo[3,4-b]pyridine], above 300 °C.
The result for `CCCC1=C(C(=O)OCC)C(c2ccccc2Cl)c2cnn(C(=O)C=Cc3ccccc3)c2N1` (stereo not shown) [Example 228, Ethyl 4-(2-chlorophenyl)-1-cinnamoyl-4,7-dihydro-6-propyl-1H-pyrazolo[3,4-b]pyridine-5-carboxylate] reads 131 to 134 °C.
As to `CCCC1=C(C#N)C(c2ccccc2Cl)c2c(n[nH]c2-c2ccco2)N1` (stereo not shown) [Example 295, 4-(2-Chlorophenyl)-5-cyano-4,7-dihydro-3-(furan-2-yl)-6-propyl-2H-pyrazolo[3,4-b]pyridine], the melting point is 253 °C.
Compound `CCCC1=C(C(=O)OCC)C(c2cccc3c2CCC3)c2c[nH]nc2N1` (stereo not shown) [Example 103, Ethyl 4,7-dihydro-4-(indan-4-yl)-6-propyl-2H-pyrazolo[3,4-b]pyridine-5-carboxylate] yielded a melting point of 181 to 183 °C.
In turn, `COC(=O)C1=C(C)Nc2n[nH]cc2C1c1ccccc1Cl` (stereo not shown) [Example 4, Methyl 4-(2-chlorophenyl)-4,7-dihydro-6-methyl-2H-pyrazolo[3,4-b]pyridine-5-carboxylate] yielded a melting point of 235 °C.
Consider `N#CC1=C(CO)Nc2n[nH]cc2C1c1ccccc1Cl` (stereo not shown) [Example 252, 4-(2-Chlorophenyl)-5-cyano-4,7-dihydro-6-hydroxymethyl-2H-pyrazolo[3,4-b]pyridine], for which the melting point is 205 to 210 °C (dec.).
The result for `N#CC1=C(C2CCCN2)Nc2n[nH]cc2C1c1cccc(C#N)c1Br` (stereo not shown) [Example 1068, 4-(2-Bromo-3-cyanophenyl)-5-cyano-6-(pyrrolidin-2-yl)-4,7-dihydro-2H-pyrazolo[3,4-b]pyridine] reads above 240 °C; that for `COc1ccc(C2=C(C#N)C(c3ccccc3[N+](=O)[O-])c3c[nH]nc3N2)cc1` (stereo not shown) [Example 157, 5-Cyano-4,7-dihydro-6-(4-methoxyphenyl)-4-(2-nitrophenyl)-2H-pyrazolo[3,4-b]pyridine], 215 °C.
The result for `CCOC(=O)C1=C(C(F)(F)F)Nc2n[nH]c(C)c2C1c1ccccc1Cl` (stereo not shown) [Example 21, Ethyl 4-(2-chlorophenyl)-4,7-dihydro-3-methyl-6-trifluoromethyl-2H-pyrazolo[3,4-b]pyridine-5-carboxylate] reads 165 to 168 °C.
The compound `CCCOC(=O)n1ncc2c1NC(CCC)=C(C(=O)OCC)C2c1ccccc1Cl` (stereo not shown) [Example 221, Ethyl 4-(2-chlorophenyl)-4,7-dihydro-1-propoxycarbonyl-6-propyl-1H-pyrazolo[3,4-b]pyridine-5-carboxylate] displayed a melting point of 66 to 68 °C.
In the case of `COC(CC1=C(C#N)C(c2cccc3nonc23)c2c[nH]nc2N1)OC` (stereo not shown) [Example 329, 4-(2,1,3-Benzoxadiazol-4-yl)-5-cyano-6-(2,2-dimethoxyethyl)-4,7-dihydro-2H-pyrazolo[3,4-b]pyridine], the melting point worked out at 115 °C.
Consider `N#CC1=C(C2CC2)Nc2n[nH]cc2C1c1ccccc1[N+](=O)[O-]` (stereo not shown) [Example 272, 5-Cyano-6-cyclopropyl-4,7-dihydro-4-(2-nitrophenyl)-2H-pyrazolo[3,4-b]pyridine], for which the melting point is 236 to 238 °C (dec.).
The result for `CCOC(=O)C1=C(C(F)(F)F)Nc2n[nH]cc2C1c1ccccc1F` (stereo not shown) [Example 13, Ethyl 4-(2-fluorophenyl)-4,7-dihydro-6-trifluoromethyl-2H-pyrazolo[3,4-b]pyridine-5-carboxylate] reads 119 to 120 °C; that for `CCCC1=C(C(=O)OCC)C(c2ccccc2Cl)c2cnn(C(=O)OC(C)(C)C)c2N1` (stereo not shown) [Example 204, Ethyl 1-tert-butoxycarbonyl-4-(2-chlorophenyl)-4,7-dihydro-6-propyl-1H-pyrazolo[3,4-b]pyridine-5-carboxylate], 112 to 116 °C; that for `CCCC1=C(C(=O)OCC)C(c2ccccc2C#N)c2c[nH]nc2N1` (stereo not shown) [Example 42, Ethyl 4-(2-cyanophenyl)-4,7-dihydro-6-propyl-2H-pyrazolo[3,4-b]pyridine-5-carboxylate], 211 °C.
The result for `CC(=O)N1CC=C(C2=C(C#N)C(c3cccc4nonc34)c3c[nH]nc3N2)CC1` (stereo not shown) [Example 1027, 6-(1-Acetyl-1,2,3,6-tetrahydropyridin-4-yl)-4-(2,1,3-benzoxadiazol-4-yl)-5-cyano-4,7-dihydro-2H-pyrazolo[3,4-b]-pyridine] reads 237 °C; that for `CCCC1=C(C#N)C(c2ccccc2Cl)c2c(n[nH]c2-c2cccs2)N1` (stereo not shown) [Example 294, 4-(2-Chlorophenyl)-5-cyano-4,7-dihydro-6-propyl-3-(thiophen-2-yl)-2H-pyrazolo[3,4-b]pyridine], 256 °C; that for `CCOC(=O)C1=C(C(F)(F)F)Nc2n[nH]cc2C1c1ccc(Cl)cc1` (stereo not shown) [Example 18, Ethyl 4-(4-chlorophenyl)-4,7-dihydro-6-trifluoromethyl-2H-pyrazolo[3,4-b]pyridine-5-carboxylate], 176 to 178 °C.
Compound `CCCC1=C(C(=O)OCC)C(c2nccn2C)c2c[nH]nc2N1` (stereo not shown) [Example 237, Ethyl 4,7-dihydro-4-(1-methyl-1H-imidazol-2-yl)-6-propyl-2H-pyrazolo[3,4-b]pyridine-5-carboxylate] came in with a melting point of 209 °C.
`N#CC1=C(c2ccccc2)Nc2n[nH]cc2C1c1cccc(C#N)c1Br` (stereo not shown) [Example 147, 4-(2-Bromo-3-cyanophenyl)-5-cyano-4,7-dihydro-6-phenyl-2H-pyrazolo[3,4-b]pyridine] displayed a melting point above 270 °C.
